Experimental data as given in patent US6964975B2, “Isoxazole and thiazole compounds and use thereof as medicine” (Kirin Beer Kabushiki Kaisha, priority 2000, dated 2005).

Target: T1, human EDG-2 (Homo sapiens, UniProt Q92633)
T1 construct: cDNA of the cloned human EDG-2 was introduced into pEFneo, which is an animal expression vector; expressed in transfected cells; host or cells: HepG2
Assay: Inhibitory activity on LPA-induced elevation of intracellular Ca2+ level
Assay type: cell-based
Conditions: 50% inhibition of elevation of intracellular Ca2+ level by LPA, human EDG-2/HepG2 cells, fura-2
Source text: The human EDG-2 expression plasmid was introduced into HepG2 cells by electroporation. After the introduction, culturing was continued while exchanging selective media every 3 to 4 days, thereby obtaining an expressed colony. Regarding these cells, Ca-influx and cell-proliferation by LPA, level of [^3H] LPA binding and the like were inspected to select a cell line which highly expresses human EDG-2 (human EDG-2/HepG2).
Human EDG-2/HepG2 cells were washed and then suspended in 0.1% BSA (bovine serum albumin)-containing HEPES buffer. A fluorescent indicator, fura-2/AM (Wako Pure Chemical Industries, Ltd.), was added, and the mixture was shaken at room temperature for 45 minutes so that the indicator is included in the cell. Cells were washed again and then suspended in 0.1% BSA-containing HEPES buffer, and intracellular Ca^2+ level was assayed using FDSS2000 (Hamamatsu Photonics). […] Each test compound was added to the cell suspension followed by the addition of LPA, thereby examining the inhibitory activity of the test compound on the function of LPA for elevating the intracellular Ca level. […] The lower the IC50 value, the higher the antagonistic activity on the LPA receptor.

T1 sequence (Q92633 whole entry): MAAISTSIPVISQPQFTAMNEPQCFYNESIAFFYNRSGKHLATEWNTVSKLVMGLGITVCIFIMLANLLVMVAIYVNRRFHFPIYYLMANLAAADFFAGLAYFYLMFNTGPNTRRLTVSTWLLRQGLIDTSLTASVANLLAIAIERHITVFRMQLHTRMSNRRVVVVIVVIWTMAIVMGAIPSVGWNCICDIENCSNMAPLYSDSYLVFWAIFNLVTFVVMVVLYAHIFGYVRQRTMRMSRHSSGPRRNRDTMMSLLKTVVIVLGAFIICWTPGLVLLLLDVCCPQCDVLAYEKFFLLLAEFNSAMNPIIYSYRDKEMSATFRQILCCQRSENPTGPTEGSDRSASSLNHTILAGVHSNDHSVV

SMILES	IC50 [µM]
Cc1onc(-c2ccccc2)c1NC(=O)OC(C)c1ccccc1Br (centres unmarked) [Compound 23, 1-(2-Bromophenyl)ethyl N-(5-methyl-3-phenyl-4-isoxazolyl)carbamate]	10
Cc1noc(-c2ccc(Cl)nc2)c1NC(=O)OC(C)c1ccccc1Cl (centres unmarked) [Compound 63, 1-(2-Chlorophenyl)ethyl N-[5-(6-chloro-3-pyridyl)-3-methyl-4-isoxazolyl]carbamate]	30
Cc1noc(-c2cccc(F)c2)c1NC(=O)OC(C)c1ccccc1 (centres unmarked) [Compound 29, 1-Phenylethyl N-[5-(3-fluorophenyl)-3-methyl-4-isoxazolyl]carbamate]	10
Cc1noc(-c2ccccc2F)c1NC(=O)OC(C)c1ccccc1Cl (centres unmarked) [Compound 43, 1-(2-Chlorophenyl)ethyl N-[5-(2-fluorophenyl)-3-methyl-4-isoxazolyl]carbamate]	3 to 10
Cc1ccccc1C(C)OC(=O)Nc1c(-c2ccccc2)noc1C (centres unmarked) [Compound 14, 1-(2-Methylphenyl)ethyl N-(5-methyl-3-phenyl-4-isoxazolyl)carbamate]	30 to 100
Cc1noc(-c2ccc(F)cc2F)c1NC(=O)OC(C)c1ccccc1Cl (centres unmarked) [Compound 60, 1-(2-Chlorophenyl)ethyl N-[5-(2,4-difluorophenyl)-3-methyl-4-isoxazolyl]carbamate]	1 to 3
Cc1onc(-c2ccccc2)c1NC(=O)O[C@H](C)c1ccccc1Cl [Compound 17, (1R)-1-(2-Chlorophenyl)ethyl N-(5-methyl-3-phenyl-4-isoxazolyl)carbamate]	3
Cc1onc(-c2ccccc2)c1NC(=O)O[C@H](C)c1ccccc1Br [Compound 22, (1R)-1-(2-Bromophenyl)ethyl N-(5-methyl-3-phenyl-4-isoxazolyl)carbamate]	3 to 10
Cc1cccc(-c2onc(C)c2NC(=O)OC(C)c2ccccc2)c1 (centres unmarked) [Compound 27, 1-Phenylethyl N-[3-methyl-5-(3-methylphenyl)-4-isoxazolyl]carbamate]	30
Cc1noc(-c2ccco2)c1NC(=O)OC(C)c1ccccc1 (centres unmarked) [Compound 31, 1-Phenylethyl N-[5-(2-furyl)-3-methyl-4-isoxazolyl]carbamate]	10
Cc1noc(-c2ccc(F)cc2)c1NC(=O)OC(C)c1ccccc1Cl (centres unmarked) [Compound 41, 1-(2-Chlorophenyl)ethyl N-[5-(4-fluorophenyl)-3-methyl-4-isoxazolyl]carbamate]	3 to 10
Cc1noc(-c2ccncc2)c1NC(=O)OC(C)c1ccccc1 (centres unmarked) [Compound 61, 1-Phenylethyl N-[3-methyl-5-(4-pyridyl)-4-isoxazolyl]carbamate]	3 to 10
Cc1noc(-c2ccc(OC(F)(F)F)cc2)c1NC(=O)OC(C)c1ccccc1F (centres unmarked) [Compound 45, 1-(2-Fluorophenyl)ethyl N-[3-methyl-5-[4-(trifluoromethoxy)phenyl]-4-isoxazolyl]carbamate]	3
Cc1ccc(-c2onc(C)c2NC(=O)OC(C)c2ccccc2)cc1 (centres unmarked) [Compound 37, 1-Phenylethyl N-[3-methyl-5-(4-methylphenyl)-4-isoxazolyl]carbamate]	30
Cc1noc(-c2ccccc2)c1NC(=O)OC(C)c1ccccc1Cl (centres unmarked) [Compound 3, 1-(2-Chlorophenyl)ethyl N-(3-methyl-5-phenyl-4-isoxazolyl)carbamate]	3
Cc1noc(-c2cccc(F)c2)c1NC(=O)O[C@H](C)c1ccccc1Br [Compound 33, (1R)-1-(2-Bromophenyl)ethyl N-[5-(3-fluorophenyl)-3-methyl-4-isoxazolyl]carbamate]	3 to 10
Cc1noc(-c2ccc([N+](=O)[O-])cc2)c1NC(=O)OC(C)c1ccccc1 (centres unmarked) [Compound 54, 1-Phenylethyl N-[3-methyl-5-(4-nitrophenyl)-4-isoxazolyl]carbamate]	10 to 30
Cc1noc(-c2ccc3c(c2)OCO3)c1NC(=O)OC(C)c1ccccc1Cl (centres unmarked) [Compound 52, 1-(2-Chlorophenyl)ethyl N-[5-(1,3-benzodioxol-5-yl)-3-methyl-4-isoxazolyl]carbamate]	30
Cc1noc(-c2cccc([N+](=O)[O-])c2)c1NC(=O)OC(C)c1ccccc1 (centres unmarked) [Compound 58, 1-Phenylethyl N-[3-methyl-5-(3-nitrophenyl)-4-isoxazolyl]carbamate]	10
Cc1onc(-c2ccccc2)c1NC(=O)OC(C)c1ccccc1 (centres unmarked) [Compound 12, 1-Phenylethyl N-(5-methyl-3-phenyl-4-isoxazolyl)carbamate]	30 to 100
Cc1onc(-c2ccc(CO)cc2)c1NC(=O)OC(C)c1ccccc1Cl (centres unmarked) [Compound 8, 1-(2-Chlorophenyl)ethyl N-[3-[4-(hydroxymethyl)phenyl]-5-methyl-4-isoxazolyl]carbamate]	3 to 10
Cc1noc(-c2ccc([N+](=O)[O-])cc2)c1NC(=O)OC(C)c1ccccc1Cl (centres unmarked) [Compound 55, 1-(2-Chlorophenyl)ethyl N-[3-methyl-5-(4-nitrophenyl)-4-isoxazolyl]carbamate]	3 to 10
Cc1noc(-c2cccc([N+](=O)[O-])c2)c1NC(=O)OC(C)c1ccccc1Cl (centres unmarked) [Compound 59, 1-(2-Chlorophenyl)ethyl N-[3-methyl-5-(3-nitrophenyl)-4-isoxazolyl]carbamate]	3 to 10
Cc1noc(-c2ccccc2)c1NC(=O)OCc1ccccc1 [Compound 7, Benzyl N-(3-methyl-5-phenyl-4-isoxazolyl)carbamate]	30

More lines, now with the values ahead:

IC50 [µM]	SMILES
10 to 30	CCCCc1ccc(-c2onc(C)c2NC(=O)OC(C)c2ccccc2Cl)cc1 (centres unmarked) [Compound 65, 1-(2-Chlorophenyl)ethyl N-[5-(4-butylphenyl)-3-methyl-4-isoxazolyl]carbamate]
10 to 30	Cc1noc(-c2ccc(COCc3ccc(F)cc3)cc2)c1NC(=O)OC(C)c1ccccc1Cl (centres unmarked) [Compound 82, 1-(2-Chlorophenyl)ethyl N-[5-(4-[[(4-fluorobenzyl)oxy]methyl]phenyl)-3-methyl-4-isoxazolyl]carbamate]
30 to 100	Cc1ccccc1CCOC(=O)Nc1c(-c2ccccc2)noc1C [Compound 95, 2-Methylphenethyl N-(5-methyl-3-phenyl-4-isoxazolyl)carbamate]
3 to 10	Cc1noc(-c2ccoc2)c1NC(=O)OC(C)c1ccccc1Cl (centres unmarked) [Compound 68, 1-(2-Chlorophenyl)ethyl N-[5-(3-furyl)-3-methyl-4-isoxazolyl]carbamate]
10	Cc1noc(-c2ccc(COCc3c(F)cccc3F)cc2)c1NC(=O)OC(C)c1ccccc1Cl (centres unmarked) [Compound 83, 1-(2-Chlorophenyl)ethyl N-[5-(4-[[(2,6-difluorobenzyl)oxy]methyl]phenyl)-3-methyl-4-isoxazolyl]carbamate]
3 to 10	Cc1noc(-c2ccc(COCc3ccco3)cc2)c1NC(=O)OC(C)c1ccccc1Cl (centres unmarked) [Compound 84, 1-(2-Chlorophenyl)ethyl N-(5-[4-[(2-furylmethoxy)methyl]phenyl]-3-methyl-4-isoxazolyl)carbamate]
30 to 100	Cc1onc(-c2ccccc2)c1NC(=O)OC1CCc2ccccc21 (centres unmarked) [Compound 97, 2,3-Dihydro-1H-1-indenyl N-(5-methyl-3-phenyl-4-isoxazolyl)carbamate]
3 to 10	Cc1noc(-c2ccc(CNCc3ccco3)cc2)c1NC(=O)OC(C)c1ccccc1Cl (centres unmarked) [Compound 93, 1-(2-Chlorophenyl)ethyl N-[5-(4-[[(2-furylmethyl)amino]methyl]phenyl)-3-methyl-4-isoxazolyl]carbamate]
10	Cc1ccsc1-c1onc(C)c1NC(=O)OC(C)c1ccccc1 (centres unmarked) [Compound 66, 1-Phenylethyl N-[3-methyl-5-(3-methyl-2-thienyl)-4-isoxazolyl]carbamate]
30 to 100	C=CC(OC(=O)Nc1c(-c2ccccc2)noc1C)c1ccccc1 (centres unmarked) [Compound 81, 1-Phenylallyl N-(5-methyl-3-phenyl-4-isoxazolyl)carbamate]
1 to 3	CCc1noc(-c2ccccc2)c1NC(=O)OC(C)c1ccccc1Cl (centres unmarked) [Compound 76, 1-(2-Chlorophenyl)ethyl N-(3-ethyl-5-phenyl-4-isoxazolyl)carbamate]
1 to 3	Cc1noc(-c2cccc(CCl)c2)c1NC(=O)OC(C)c1ccccc1Cl (centres unmarked) [Compound 70, 1-(2-Chlorophenyl)ethyl N-[5-[3-(chloromethyl)phenyl]-3-methyl-4-isoxazolyl]carbamate]
10 to 30	Cc1noc(-c2ccc(CN3CC(C)OC(C)C3)cc2)c1NC(=O)OC(C)c1ccccc1Cl (centres unmarked) [Compound 89, 1-(2-Chlorophenyl)ethyl N-(5-[4-[(2,6-dimethylmorpholino)methyl]phenyl]-3-methyl-4-isoxazolyl)carbamate]
10 to 30	Cc1noc(-c2c(-c3ccccc3)noc2C)c1NC(=O)OC(C)c1ccccc1Cl (centres unmarked) [Compound 72, 1-(2-Chlorophenyl)ethyl N-[5-(3-phenyl-5-methyl-4-isoxazolyl)-3-methyl-4-isoxazolyl]carbamate]
30 to 100	Cc1onc(-c2ccccc2)c1NC(=O)OCCc1ccccc1 [Compound 96, Phenethyl N-(5-methyl-3-phenyl-4-isoxazolyl)carbamate]
3 to 10	CCc1noc(-c2ccc(CCl)cc2)c1NC(=O)OC(C)c1ccccc1F (centres unmarked) [Compound 160, 1-(2-Fluorophenyl)ethyl N-{5-[4-(chloromethyl)phenyl]-3-ethyl-4-isoxazolyl}carbamate]
30 to 100	CCCCCOC(=O)Nc1c(-c2ccccc2)noc1C [Compound 99, Pentyl N-(5-methyl-3-phenyl-4-isoxazolyl)carbamate]
